{
  "source": "patent US9526766B2",
  "about": "“Potentiation of antibiotic treatment with a protein-lipid complex” (priority 2012, dated 2016)",
  "key": {"NRS 384 Staphylococci [1]": {"tested_on": "NRS 384 Staphylococci", "experiment": "Intracellular pH measurement (BCECF-AM)", "assay_type": "cell-based, Staphylococcus aureus", "conditions": "ALAFAC 100 μg/mL (6 μM), RuR 30 μM, Amiloride 1 mM", "excerpt": "Intracellular pH measurement. A reported protocol for intracellular pH (pHi) measurement was modified and optimized for S. aureus by testing the effect of various dye concentrations and staining times on the measured fluorescence of S. aureus isolate NRS 384 grown to mid-log phase. Cell samples were subjected to increasing concentrations of the membrane-permeant acetoxymehtyl (AM) ester derivative of the dual-excitation ratiometric pH indicator dye BCECF (2′,7′-bis-(2-carboxyethyl)-5-(and-6)-carboxyfluorescein), for 30 minutes at 30° C. Fluorescence was measured as a ratio of fluorescence at 530 nm with dual wavelength excitation at 490 and 440 nm and calibration curves were established for each independent experiment. After testing a number of loading concentrations we observed that the fluorescence ratios remains generally constant when concentrations above 20 μM was used. Therefore 25 μM BCECF-AM was used for all experiments. The optimized staining time, 30 minutes, was determined using the same criteria and was used for all experiments. After loading, the cells were washed twice in PBS by centrifugation and the resulting pellet was resuspended in PBS to the original volume and ALAFAC and ALAFAC/antibiotic combinations were added. CCCP was added as a positive control. CCCP is a lipophilic weak acid that is soluble in the lipid domain of the membrane in both the protonated and deprotonated form. This allows it to act as a protonophore causing an influx of H^+ into the cytoplasm, dissipating both the electrical potential and the H^+ gradient across the inner membrane. For each experiment calibration was performed where cells were resuspended in high [K^+] buffers at different pH values ranging from 6.5 to 8.0."}, "Staphylococcus aureus": {"tested_on": "Staphylococcus aureus", "experiment": "MIC by broth microdilution, antibiotics with and without ALAFAC", "assay_type": "cell-based", "conditions": "NRS 123; methicillin + ALAFAC; Ruthenium Red 30 μM, Amiloride 1 mM", "procedure": "Methodology: Minimal inhibitory concentrations (MICs) were determined in 96-well microtiter plates using the microdilution method according to approved standards of the CLSI except that Todd-Hewitt medium supplemented with 0.5% yeast extract, which yields reproducible MIC results was used as the test medium for S. pneumoniae. For the remaining species Mueller-Hinton medium was used as indicated by the CLSI standard. Each well contained two-fold dilutions of antibiotic, was seeded with a final bacterial concentration of 10^5 CFU/mL, and was incubated for 18 h at 37° C. in a Synergy II microplate reader (Biotek, Winooski, Vt.) where the OD600 was recorded every 5 minutes to monitor bacterial growth. The MIC was defined as the lowest concentration of antimicrobial agent solution at which no increase in OD600 was detected.\nIn vitro susceptibility tests. Minimal inhibitory concentrations (MICs) were determined in 96-well microtiter plates using the microdilution method according to approved standards of the CLSI as described previously. However, rather than Mueller-Hinton broth, Tryptic soy broth (TSB) was used for susceptibility testing as it is the common media used for Staphylococcal growth, and as it has shown more consistent results for a variety of antimicrobials when tested against Staphylococci. […] A two-fold dilution series of antibiotics in triplicate and in the presence or absence of ALAFAC was prepared in 96 well microtiter plates, and each well was seeded with a final bacterial concentration of 10^5 CFU/mL, and was incubated for 24 h at 37° C. in a Synergy 2 microplate reader (Biotek, Winooski, Vt.) where the Optical Density at 600 nm (OD600) was recorded every 5 minutes to monitor bacterial growth. The MIC was defined as the lowest concentration of antimicrobial agent solution where no increase in OD600 was detected."}, "Streptococcus pneumoniae": {"tested_on": "Streptococcus pneumoniae", "experiment": "Short-time kill assay on planktonic cultures", "assay_type": "cell-based", "conditions": "D39, 1 hour, staurosporine 20 μM; for Effect of inhibitor on ALAFAC potentiation of gentamicin and penicillin G: Ruthenium Red 30 μM", "procedure": "Methodology: In late logarithmic growth phase, the bacteria were harvested by centrifugation at 12,000×g for 10 minutes and resuspended in phosphate-buffered saline (PBS; […], […], […], pH 7.4). Appropriate dilutions of the bacteria were suspended in PBS and treated with indicated concentrations of ALAFAC and/or antibiotics for various times. The effect on bacterial viability was assessed by plating serial dilutions of bacterial sample on tryptic soy agar plates containing 5% sheep blood (viable counts) and determining viable colony forming units after overnight growth at 37° C.\nShort-time kill assays. In late logarithmic growth phase, the bacteria were harvested by centrifugation at 12,000×g for 10 minutes and resuspended in phosphate-buffered saline (PBS; 30 mM Na2HPO4, 10 mM KH2PO4, […], pH 7.4). Appropriate concentrations of the bacteria (around 10^8 colony forming units per ml) were suspended in PBS and treated with indicated concentrations of ALAFAC and/or antibiotics for various times. The effect on bacterial viability was assessed by plating serial dilutions of bacterial sample on tryptic soy agar plates containing 5% sheep blood (viable counts) and determining viable CFUs after overnight growth at 37° C."}, "NRS 384 Staphylococci [2]": {"tested_on": "NRS 384 Staphylococci", "experiment": "Radioisotope 45Ca2+ transport assay", "assay_type": "cell-based, Staphylococcus aureus", "conditions": "ALAFAC addition, Ruthenium Red 30 μM", "procedure": "Radioisotope ^45Ca^2+ transport assays. Staphylococcus aureus was grown to log phase, washed three times and resuspended in 1×PBS containing 0.5 mM CaCl2 (CaPBS). No glucose was added in order to minimize the interference created by extrusion of Ca^2+ via ATPase pumps. ^45CaCl2 (PerkinElmer; Waltham, Mass., USA) was added to the cells at a final concentration of 2.5 μCi/mL, followed by inhibitor compound, with each addition given two minutes equilibration time. The untreated baseline sample was measured at this point. The sample was then divided, ALAFAC was added to one of the tubes, and ^45Ca^2+ uptake was measured at various intervals. For each sample, 100 μL was dispensed onto Millipore 0.3 μm PHWP filters (EMD Millipore; Billerica, Mass., USA) presoaked in CaPBS, and immediately washed with 9 mL of CaPBS via syringe filtration through Millipore Swinnex® filter holders. Filters were placed in scintillation vials with 5 mL of scintillation fluid, and CPMs were detected on a Wallac 1409 liquid scintillation counter (Wallac Oy, Turku, Finland). The results were expressed as ΔCPM that was calculated for each sample at the indicated time points as the difference between ALAFAC-treated and untreated samples."}, "NRS 123 Staphylococci": {"tested_on": "NRS 123 Staphylococci", "experiment": "Membrane potential, DiBAC4(3) fluorescence", "assay_type": "cell-based, Staphylococcus aureus", "conditions": "Ruthenium Red, Amiloride", "procedure": "Assessing membrane potential. Staphylococci grown to late log phase in TSB were pelleted by centrifugation at 2,400×g for 10 minutes and washed twice by resuspension in PBS. The bacterial pellet was resuspended in PBS to half of the original volume and energized with 50 mM glucose for 15 minutes at 37° C. To measure membrane potential of the staphylococcal membrane, 500 nM DiBAC4(3) (bis-(1,3-dibutylbarbituric acid) trimethine oxonol; Molecular Probes, Eugene, Oreg., USA) were added. […] The plate was then placed immediately into a pre-warmed (37° C.) Synergy 2 Multi-Mode Microplate Reader (BioTek) where fluorescence readings from DiBAC4(3) (485/20 nm excitation, 528/20 nm emission) were taken every minute for one hour. The difference in fluorescence intensity between the untreated control and the ALAFAC-treated sample was calculated for the “no inhibitor” samples and for the “inhibitor” samples using the values after 60 minutes. The fluorescence intensity difference for the “inhibitor” samples was then expressed as fold change of the intensity compared with the ALAFAC alone (“no inhibitor”) sample, providing the degree of depolarization compared to the “ALAFAC alone” sample."}},
  "data": [
    {"smiles": "N.N.N.N.N.N.N.N.N.N.N.N.N.N.[Cl-].[Cl-].[Cl-].[Cl-].[Cl-].[Cl-].[O-2].[O-2].[Ru+3].[Ru+3].[Ru+4]", "note": "[Ruthenium Red]", "values": [
      {"measurement": "Transmembrane proton gradient (intracellular pH)", "setting": "NRS 384 Staphylococci [1]", "result": "did not fully inhibit"},
      {"measurement": "Effect of inhibitor on ALAFAC antibiotic potentiation in MIC assay", "setting": "Staphylococcus aureus", "result": "completely abolished"},
      {"measurement": "Effect of inhibitor on ALAFAC potentiation of gentamicin and penicillin G", "setting": "Streptococcus pneumoniae", "result": "completely abolished"},
      {"measurement": "Effect of inhibitor on ALAFAC potentiation of gentamicin and penicillin G", "setting": "Streptococcus pneumoniae; listed as ruthenium red", "result": "significantly blocked"},
      {"measurement": "Effect of inhibitor on ALAFAC-induced death", "setting": "Streptococcus pneumoniae; lethal ALAFAC (12×MIC), ruthenium red 30 μM", "result": "significantly reduced"},
      {"measurement": "Intracellular Ca2+ (45Ca2+ uptake)", "setting": "NRS 384 Staphylococci [2]", "result": "almost completely blocked"},
      {"measurement": "Effect of inhibitor on ALAFAC-associated membrane depolarization", "setting": "NRS 123 Staphylococci", "result": "completely abolished"}
    ]}
  ]
}
